# Assay results reported in patent publication US7049321B2, “Methods and pharmaceutical compositions for treatment of central and peripheral nervous system disorders and compounds useful therefor” (Israel Institute for Biological Research, priority 2002, dated 2006).
# Key:
# [1] = test system: rat primary hippocampal cell cultures; test: APPs secretion in rat primary hippocampal cell cultures; assay type: cell-based; details: 100 μm
# [2] = test system: rat primary cerebral cortex cell cultures; test: APPs secretion in rat primary cortical cell cultures; assay type: cell-based; details: 100 μm
# [3] = test system: tau proteins; test: tau phosphorylation, AT8 immunoblot; assay type: cell-based; details: 100 μM; to the control level
# From the text: Following the experimental design of Sadot et al., J. Neurochem. […] By linking an M1 agonist to an antioxidant moiety tau phophorylation may be decreased, providing a new therapeutic strategy in a variety of CNS disease states due to combined damage due to oxidative stress and tau hyperphosphorylation.
# [4] = test system: Rat pheochromocytoma cells transfected with M1 mAChR; assay type: cell-based; details: β-A25-35 (10 & 20 μM)
# Description: Confluent rat pheochromocytoma cells transfected with the M1 mAChR cultures were detached with trypsin, washed and plated in 24-well, 6-well, 60-mm or 100-mm plates that were precoated with rat tail collagen (Sigma, Israel). Several experiments were performed in serum-free medium. For 3-(4,5-dimethylthiazol-2-yl)-2,5-diphenyl-tetrazolium bromide (MTT) assay, cells (1.5×10^4) were plated in 96-well collagen-precoated plates, in serum-free medium, with or without various drugs for 24 hours. For differentiation, cells were grown in the presence of 1% FCS and 1% HS, with addition of 50 ng/ml NGF for 7 days, to cause full differentiation. […] After 7 days, cells were washed and the medium was either replaced to serum-free, or cells were detached and replated in serum-free medium. Cells in serum-free medium were treated either with Aβ peptides that were previously “aged” or with H2O2. Tested compounds were added together with the insults for the indicated time, unless otherwise stated.
# Cells were plated in 96-well plates in 100 μl medium. After exposure to various treatments, 10 μl of 5 mg/ml MTT [3-(4,5-dimethylthiazol-2-yl)-2,5-diphenyl-tetrazolium bromide; Sigma, Israel] solution in phosphate-buffered saline (PBS) was added to each well. Plates were incubated for 2 hrs at 37° C. followed by hydrocholoric acid-isopropanol addition (100 μl of 0.04N HCl/isopropanol). Plates were read using ELISA reader at a wavelength of 570 nm.
# The MTT assay measures primary early changes within the cells, reflecting the integrity of the electron transport chain and provides a readout of cellular redox activity. This test is a specific, early indicator of the mechanism of β-amyloid-mediated cell death and can be used to detect rapid inhibitory response.
# [5] = test system: Rat pheochromocytoma cells transfected with M1 mAChR; test: Neurite outgrowth response; assay type: cell-based; details: blocked by atropine
# Description: Rat pheochromocytoma cells transfected with M1 mAChR cells were grown as described in Gurwitz et al, (NeuroReport 6, 485,1995). For determination of neurite outgrowth, cells plated in six-well plates were used 3–5 days after-plating. Growth factors were added 1 day after plating and muscarinic agonists were added for the last 24 hrs.
# Cells were observed under an inverted microscope. The percent of cells with neurite longer than cell diameter were scored in three random fields of several hundred cells from each well. Results were expressed as a percent of cells with neurites. Treatments were performed in triplicate cells. Both NGF (50 ng/ml) and EGF (100 ng/ml) were added 1 day after plating. Muscarinic agonists were added 24 hours before scoring.
# [6] = target: T1, M1 mAChR (Rattus norvegicus, UniProt P08482); test: α-APPs secretion in cell cultures stably transfected with the M1 mAChR; assay type: cell-based; details: for Emax: read-out: APPs levels, % of maximal effect of carbachol, at 100 μm
# T1 construct: expressed in transfected cells; elsewhere rat pheochromocytoma cells
# T1 sequence (P08482 1-460): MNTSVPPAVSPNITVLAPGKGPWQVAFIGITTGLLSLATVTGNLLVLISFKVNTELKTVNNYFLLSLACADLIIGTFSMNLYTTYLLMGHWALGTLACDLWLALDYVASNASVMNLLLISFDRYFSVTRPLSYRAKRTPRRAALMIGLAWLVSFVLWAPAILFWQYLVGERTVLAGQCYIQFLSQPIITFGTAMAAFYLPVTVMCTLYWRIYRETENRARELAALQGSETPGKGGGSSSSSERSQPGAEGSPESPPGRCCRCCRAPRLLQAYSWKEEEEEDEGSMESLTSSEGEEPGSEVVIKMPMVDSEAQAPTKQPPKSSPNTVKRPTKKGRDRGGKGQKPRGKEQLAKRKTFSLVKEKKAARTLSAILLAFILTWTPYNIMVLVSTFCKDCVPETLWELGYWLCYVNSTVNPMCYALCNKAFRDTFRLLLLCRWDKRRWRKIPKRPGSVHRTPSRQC
# Description: Cells were plated in 6 well culture plates and used at the age of 3–5 days after plating. […] Cells exposed to medium alone are referred as controls.
# Cell supernatants were collected into Eppendorff tubes containing a cocktail of protease inhibitors (5 units/ml aprotinin, […], […] and 10^−4M Phenylmethylsulfonylfluoride (PMSF, a protease inhibitor); Sigma, USA). The collected media were concentrated with Centricon tubes (Amicon, Beverly, Mass., USA) and kept frozen for α-APPs secretion determination. Equal amounts of protein (50–100 μg) were loaded and separated on 10% sodium dodecyl sulfate-polyacrylamide gel electrophoresis (SDS-PAGE). Followed by western blotting onto nitrocellulose membrane, blocked by fat-free milk, and probed for 24 hours at 4° C., with anti-Alzheimer's precursor protein, A4 monoclonal antibody 22C11 (0.25 μg/ml; Boehringer Mannheim, Germany). The nitrocellulose membranes were washed and incubated for 2 hours at room temperature with peroxidase-linked goat anti-mouse IgG antibodies (Jackson Immunoresearch, USA), followed by extensive washout and staining with enhanced chemiluminescence detection system (Amersham). Quantitative evaluation of the immunoreactive bands, on the exposed films, was performed by video-imaging densitometry (Gel-aid software; Galai Co., Israel). APPs levels were expressed as x-fold increase over basal levels.
# [7] = test system: C57BL/10SnJ (B10) mice; test: Morris water maze in small hippocampus mice; assay type: in vivo; details: for Training, escape latency: 0.5 and 1 mg/kg i.p. (rivastigmine, nicotine 1 mg/kg); for Training, path length: AF150(S) both doses, AF267B the higher dose; for Reversal test, escape latency / Training, swimming speed / Transfer test, spatial bias: mouse, in vivo
# Description: C57BL/10SnJ (B10) mice were selected due to their small hippocampi and decreased number of hippocampal pyramidal neurons; the cell loss seemed to be associated with poor spatial learning.
# (§1) Each group of mice was randomly divided into 7 treatment groups (n=12-14/group). […] All tested compounds and saline were administered once a day for 4 days before starting the behavioral testing, and then for the duration of the 5-day experiment, 30 minutes before testing.
# (§2) Training: Each mouse was trained for four consecutive days, four trials (one block) per day, in which the platform position remained constant and was located in the center of the southeast quadrant of the pool. Within each block of four trials, each mouse started at each of the starting locations, but the sequence of locations was randomly selected. A trial consisted of placing a mouse by hand into the water facing the wall of the pool at one of four starting locations, north, south, east or west, around the pool's perimeter. Escape latency (the time to find the platform), path length (the distance traveled by the mouse) and speed (the swimming rate of the mouse) were recorded on each trial by the monitoring system.
# (§3) For each mouse, the path length, escape latency, and swimming speed of the four trials on each of the 4 training days were grouped into blocks (one block for each day). […] Specific comparisons were performed, using the simple main effects contrasts acalysis, which is specifically suited for testing significant interactions.
# (§4) Transfer test. During trial No. 17, on the fourth day, the platform was entirely removed from the pool (a probe trial). In this trial, the mouse was placed into the water for a limited period (30 s), and its spatial bias was measured by recording the relative distribution of escape latency and path length over the four quadrants of the pool.
# (§5) Reversal test. During trials 18–21, on the fifth day, the platform position was changed to the northwest quadrant, opposite to the training quadrant. Thus, during reversal learning, the platform location was moved relative to the configuration of objects within the room, but the pool occupied the same place within the room throughout the entire experiment. Testing of the rats and measures taken were the same as in training.
# (§6) For each mouse, the escape latency, path length and swimming speed of the reversal test (trials No. 18–21) were grouped into one block.
# [8] = test system: C57BL6J mice; test: Morris water maze in normal hippocampus mice; assay type: in vivo; details: for Reversal test, escape latency: AF150(S) 0.5 mg/kg; for Training, path length: AF150(S) only the higher dose; for Reversal test, swimming speed: AF150(S)-0.5 mg/kg, AF267B-1 mg/kg, rivastigmine, nicotine; for Training, swimming speed: mouse, in vivo
# Description: as §1, §2, §3, §4, §5, §6
# [9] = test system: ApoE; test: ApoE synthesis and secretion in primary type 1 astrocytes; assay type: cell-based, rat; details: up to 96 hrs
# Description: Primary cultures of type 1 astrocytes were derived from the cortex of Sprague Dawley rats. The compounds tested were dissolved in the culture media and added to cells for 24, 48, 72 and 96 hrs. Media was then removed and kept frozen until ApoE protein levels were evaluated by immunoblot analysis as described in Poirier et al Neuroscience 55: 81–90 (1993). Alternatively the methods of Cedazo-Minuez et al [Neurosci 105: 651–661, 2001} may be employed.
# [10] = test system: trihexyphenidyl rats; test: Passive avoidance in trihexyphenidyl-treated rats; assay type: in vivo, Wistar rats; details: 24 h
# From the text: Trihexyphenidyl is a selective M1 muscarinic antagonist that crosses the blood brain barrier and induces memory and learning impairments (Bymaster et al. J Pharmacol Exp Ther 267: 16–24, 1993. Roldan et al Neurosci. Lett. 230: 93–96, 1997; Kimura et al Brain Res. 834: 6–12, 1999).
# Naive Wistar rats were used in the experiments below. The passive avoidance (PA) task is comprised of training (acquisition) phase and a retention phase. In the training procedure each rat was individually placed in the small illuminated compartment and after 60 sec. of familiarization/adaptation, the door to the large compartment was opened and the latency to enter was measured (Initial Latency). Immediately following entry into the dark compartment, the door was closed and inescapable foot shock (0.6 mA for 3 sec) was delivered through the grid floor. A cutoff point of 180 sec was used for initial latency. […] After the acquisition trial the rat was returned to its home cage. Retention of the passive avoidance task was measured 24 h later, by again placing the rat in the light compartment and after a 60 sec adaptation interval, the door was opened and the latency to re-enter the dark compartment was measured. A cutoff point of 300 sec was used for retention latency.
compound,measurement,setting,value
"O=C1CCCN1CC#CCN1CCCC1 [Oxotremorine, oxotremorine, reference compound]","APPs secretion, activity in words",[1],inactive
same,"APPs secretion, activity in words",[2],inactive
"(S)-Ethyl-4-(3-1H-indol-3-yl-propionyl)-8-methyl-1-thia-4,8-diaza-spiro[4.5]decan-3-one [AF704B]",tau phosphorylation (AT8),[3],induce dephosphorylation of tau proteins
same,Protection against β-A25-35-induced cytotoxicity,[4],more effective than carbachol and AF267B
"CC[C@@H]1SC2(CCN(C)CC2)N(S(=O)(=O)c2ccc(F)cc2)C1=O [AF700, (S)-2-Ethyl-4-(4-fluoro-benzenesulfonyl)-8-methyl-1-thia-4,8-diaza-spiro[4.5]decan-3-one]",Neurotrophic effect,[5],neurotrophic
same,Emax,[6],50%
same,Protection against β-A25-35-induced cytotoxicity,[4],more effective than carbachol and AF267B
"CCC1SC2(CCN(C)CC2)N(CCc2c[nH]c3ccccc23)C1=O (centres unmarked) [AF703, 2-Ethyl-4-[2-(1H-indol-3-yl)-ethyl]-8-methyl-1-thia-4,8-diaza-spiro[4.5]decan-3-one]",Protection against β-A25-35-induced cytotoxicity,[4],more effective than carbachol and AF267B
"CN1CCCC1c1cccnc1 (centres unmarked) [nicotine, reference compound]","Training, escape latency",[7],no improving effect
same,"Training, path length",[7],no significant effect
same,"Reversal test, escape latency",[7],no significant effect
same,"Training, swimming speed",[7],Neither rivastigmine nor nicotine had any significant effect
same,"Transfer test, spatial bias",[7],partial spatial bias
same,"Training, escape latency","[8]; 0.5 and 1 mg/kg i.p. (rivastigmine, nicotine 1 mg/kg)",degraded the performance
same,"Reversal test, escape latency",[8],no significant effect
same,"Training, path length",[8],no significant effect
same,"Reversal test, swimming speed",[8],significantly decreased
same,"Training, swimming speed",[8],significantly decreased the swimming speed
"CC1OC2(CS1)CN1CCC2CC1 (centres unmarked) [AF102B, reference compound]",ApoE production,[9],inactive
same,Retention latency,[10]; 1 mg/kg p.o.,234.4 ± 35.3 s
"CCC1SC2(CCN(C)CC2)NC1=O (racemic) [AF267, 2-ethyl-8-methyl-1-thia-4,8-diaza-spiro[4.5]decan-3-one]","α-APPs secretion, comparison in words",[6],AF267B is more efficacious and more potent than its racemate
"CCN(C)C(=O)Oc1cccc([C@H](C)N(C)C)c1 [rivastigmine, reference compound]","α-APPs secretion, comparison in words",[6],not effective
same,"Training, escape latency",[7],positively affected
same,"Training, path length",[7],positively affected
same,"Reversal test, escape latency",[7],no significant effect
same,"Training, swimming speed",[7],Neither rivastigmine nor nicotine had any significant effect
same,"Transfer test, spatial bias",[7],complete spatial bias
same,"Reversal test, escape latency",[8],no significant effect
same,"Training, path length",[8],neither AF267B nor rivastigmine had any effect
same,"Reversal test, swimming speed",[8],significantly decreased
same,"Training, swimming speed",[8],significantly decreased the swimming speed
"CCC1SC2(CCN(C)CC2)N(C(=O)CCc2c[nH]c3ccccc23)C1=O (racemic) [AF704, 2-Ethyl-4-(3-1H-indol-3-yl-propionyl)-8-methyl-1-thia-4,8-diaza-spiro[4.5]decan-3-one]",Neurotrophic effect,[5],neurotrophic
same,tau phosphorylation (AT8),[3],induce dephosphorylation of tau proteins
same,Emax,[6],50%
same,Protection against β-A25-35-induced cytotoxicity,[4],more effective than carbachol and AF267B
same,Retention latency,"[10]; 0.1 mg/kg, po",214.70 ± 36.63 s
same,Retention latency,[10]; 0.5 mg/kg p.o.,283.50 ± 17.39 s
same,Retention latency,[10]; 1 mg/kg p.o.,274.44 ± 26.97 s
